In patent US9663478B2, “Benzotriazine oxides as drugs targeting Mycobacterium tuberculosis” (priority 2011, dated 2017):
In brackets after ≈: the same amount, converted by molar mass. Like-named read-outs stand apart in the source and are kept apart here.

What was measured:
[1] = in vitro; conditions: African green monkey, VERO Tox (CC50)
[2] = test system: Mtb H37Rv; assay: TB MIC - ITR (UIC), Institute for Tuberculosis Research; format: cell-based, Mycobacterium tuberculosis; conditions: Tables P1, P2
[3] = test system: NRP Mtb H37Rv cells; assay: Low-oxygen recovery assay (LORA) MIC; format: cell-based, Mycobacterium tuberculosis; conditions: Tables P1, P2; non-replicating M. tuberculosis
[4] = test system: Mtb H37Rv; assay: TB MIC - SRI, resazurin-based microplate assay; format: cell-based, Mycobacterium tuberculosis; conditions: Mycobacterium tuberculosis, H37RV
[5] = test system: Vero cells; conditions: African green monkey, 72 h
[6] = Tables P1-P3, read-out: TB MIC - SRI

SMILES | CC50 at 72 h [1] | TB MIC - UIC [2] | LORA MIC [3] | MIC [4, 6] | VERO Tox-SRI [5] | MIC ([4]; read-out: Activity against H37Rv, Table P4) | MIC ([4]; read-out: TB MIC - SRI, Tables P1-P3)
[O-][n+]1nc(NC2CCCCC2)[n+]([O-])c2ccccc21 [SRI-012266] | 8.9 µg/mL (≈ 34.2 µM) | 3.77 µg/mL | 0.75 µg/mL | – | – | – | –
CC(C)CC(C)Nc1n[n+]([O-])c2cc(F)ccc2[n+]1[O-] (centres unmarked) [SRI-012281] | – | 0.55 µg/mL | 0.4 µg/mL | 1.25 µg/mL (≈ 4.46 µM) | <2.5 | – | –
[O-][n+]1nc(NC2CCCCCC2)[n+]([O-])c2ccc(F)cc21 [SRI-012282] | – | 0.39 µg/mL | 0.21 µg/mL | 0.625 µg/mL (≈ 2.14 µM) | <2.5 | – | –
CC(Nc1n[n+]([O-])c2cc(F)ccc2[n+]1[O-])C(C)(C)C (centres unmarked) [SRI-012283] | – | 0.5 µg/mL | 0.42 µg/mL | 1.25 µg/mL (≈ 4.46 µM) | <2.5 | – | –
CCNc1n[n+]([O-])c2cc(F)ccc2[n+]1[O-] [SRI-012284] | – | 0.35 µg/mL | 0.75 µg/mL | 0.625 µg/mL (≈ 2.79 µM) | 4.6 | – | –
CCNc1n[n+]([O-])c2cc3c(cc2[n+]1[O-])CCC3 [SRI-012286] | – | 0.95 µg/mL | 0.83 µg/mL | – | 36.0 | 1.25 µg/mL (≈ 5.08 µM) | 1.25 µg/mL (≈ 5.08 µM)
[O-][n+]1nc(NC2CC2)[n+]([O-])c2ccc(Cl)cc21 [SRI-012301] | – | 0.21 µg/mL | 0.22 µg/mL | 0.625 µg/mL (≈ 2.47 µM) | 1.36 | – | –
[O-][n+]1nc(NC2CCC2)[n+]([O-])c2ccc(Cl)cc21 [SRI-012302] | – | < 0.125 µg/mL | < 0.125 µg/mL | 0.156 µg/mL (≈ 0.585 µM) | 1.6 | – | –
[O-][n+]1nc(NC2CCCCC2)[n+]([O-])c2ccc(Cl)cc21 [SRI-012303] | – | 0.94 µg/mL | 0.63 µg/mL | 0.625 µg/mL (≈ 2.12 µM) | 2.62 | – | –
CCC(COC)Nc1n[n+]([O-])c2cc(Cl)ccc2[n+]1[O-] (centres unmarked) [SRI-012304] | – | 1.46 µg/mL | 0.78 µg/mL | 1.25 µg/mL (≈ 4.18 µM) | 2.6 | – | –
CCNc1n[n+]([O-])c2cc(Cl)ccc2[n+]1[O-] [SRI-012306] | – | < 0.125 µg/mL | 0.41 µg/mL | 1.25 µg/mL (≈ 5.19 µM) | 2.65 | – | –
